The results in this text go back to ChEMBL document CHEMBL4011615, “Past, Current, and Future Developments of Therapeutic Agents for Treatment of Chronic Hepatitis B Virus Infection” (J Med Chem, 2017).

Data set [1] concerns Hepatitis B virus. Kind of data set: Antiviral activity against HBV infected in human HepG2(2.2.15) cells assessed as inhibition of viral RNA level. The format is functional, cell-based.
The test system of data set [2] is Hepatitis B virus. Kind of data set: Antiviral activity against HBV infected in human HepG2(2.2.15) cells assessed as inhibition of viral DNA level. In kind it is functional, cell-based.
The subject of data set [3] is Hepatitis B virus. Kind of data set: Antiviral activity against HBV infected in human HepG2(2.2.15) cells assessed as inhibition of viral DNA level after 8 days by RT-PCR method. In kind it is functional, cell-based. The following applies: HepG2 2.2.15, 192 h.
Data set [4] relates to Hepatitis B virus. Kind of data set: Antiviral activity against HBV infected in human HepG2.N9 cells assessed as reduction in HBeAg level measured on day 8 post infection. In kind it is functional, cell-based. The following applies: 192 h.
Data set [5] concerns Hepatitis B virus. Kind of data set: Inhibition of HBV C150-Bodipy labeled capsid (1 to 150 residues) C49A/C61A/C107A mutant expressed in Escherichia coli assessed as reduction in NaCl-induced capsid assembly at 10 uM preincubated for 15 mins followed by NaCl addition measured after 1 hr by fluorescence quenching assay relative to control.
Data set [6] has as its system Hepatitis B virus. As to the kind of experiment: Antiviral activity against HBV infected in human HepAD38 cells. The format is functional, cell-based.
Data set [7] in a line: Cytotoxicity against human HepG2(2.2.15) cells after 24 hrs by MTS assay. The format is cell-based.
The subject of data set [8] is Hepatitis B virus. As to the kind of experiment: Antiviral activity against HBV infected in human HepG2(2.2.15) cells assessed as reduction in intracellular viral capsid level at antiviral IC50 by immunoblot method. In kind it is functional. A general note: A western blot detects proteins with antibodies after separation by electrophoresis.
For data set [9], the system named is Hepatitis B virus. As to the kind of experiment: Antiviral activity against HBV infected in human HepG2(2.2.15) cells assessed as inhibition of viral DNA level after 24 hrs by RT-PCR method. In kind it is functional, cell-based. As to conditions: HepG2 2.2.15, 24 h.
A short description of data set [10]: Cytotoxicity against human HepG2(2.2.15) cells assessed as reduction in cell viability after 3 days by methylene blue assay. The format is cell-based.
The test system of data set [11] is Hepatitis B virus. As to the kind of experiment: Antiviral activity against HBV infected in human HepG2(2.2.15) cells assessed as inhibition of viral DNA level after 6 days by Southern blot analysis. The format is functional, cell-based. The following applies: HepG2 2.2.15, 144 h.
Data set [12] relates to Hepatitis B virus. As to the kind of experiment: Antiviral activity against HBV infected in human HepG2(2.2.15) cells assessed as inhibition of extracellular viral DNA level. The format is functional, cell-based.
Data set [13] deals with Hepatitis B virus. As to the kind of experiment: Antiviral activity against HBV infected in human HuS-E/2 cells assessed as inhibition of viral mRNA level at 50 uM treated for 20 hrs measured after 7 days by RT-PCR method relative to control. The format is functional.
Data set [14] relates to Hepatitis B virus. As to the kind of experiment: Antiviral activity against HBV infected in human HepaRG cells assessed as reduction in viral infection after 16 hrs.

For orientation: IC50 means the point on the concentration scale where inhibition reaches its midpoint. For `CC(C)Cc1nc(-c2nccs2)sc1C(=O)NCc1ccc(F)cc1`, the 50% inhibitory concentration (IC50) in the data set with Hepatitis B virus [1] was 1330 nM. Consider `O=c1cc(-c2ccc(O)c(-c3c(O)cc4oc(-c5ccc(O)cc5)cc(=O)c4c3O)c2)oc2cc(O)cc(O)c12` [ROBUSTAFLAVONE], for which, in the data set with Hepatitis B virus [2], the IC50 turned out to be 250 nM. Take `CCOC(=O)c1sc(-c2nc(C)cs2)nc1CC(C)C`: the IC50 with Hepatitis B virus [3] is 140 nM.

Consider `CCCCC1=NC2(CCCC2)C(=O)N1Cc1ccc(-c2ccccc2-c2nnn[nH]2)cc1` [IRBESARTAN], for which the IC50 with Hepatitis B virus [4] was found to be 3300 nM.

With `CC(=O)[C@]1(O)CC[C@@]2(O)[C@]1(C)[C@H](OC(=O)/C=C(\C)C(C)C)C[C@@H]1[C@@]3(C)CC[C@H](O)CC3=CC[C@]12O` [CAUDATIN], the concentration for half-maximal inhibition (IC50) in the data set with Hepatitis B virus [2] came to 40600 nM. One may read the inhibition as how much of the control response was suppressed. In the case of `O=C(Nc1ccc(F)c(Cl)c1)N1CCCN(c2c(Cl)cncc2Cl)CC1`, the inhibition in the data set on Hepatitis B virus [5] was more than 50%.

`COc1ccccc1/C(Br)=C(/NC(=O)c1ccc([N+](=O)[O-])cc1)C(=O)N1CCCCC1` returned an IC50 with Hepatitis B virus [6] of 130 nM. Consider `CC(=O)Nc1ccc(-c2cc(C)c(=O)n(Cc3ccc(Cl)cc3)n2)cc1`, for which the IC50 in the data set on Hepatitis B virus [3] is 1500 nM.

For `CCOC(=O)C1=C(C)NC(c2c(F)cc(F)cc2F)=N[C@H]1c1ccc(F)cc1Cl`, in the data set with Hepatitis B virus [2], the IC50 came to 280 nM.

One may read the CC50 as the concentration at which the toxic effect on the cells reaches its halfway point. `O=C(CNC(=O)c1ccc(F)cc1)Nc1ccc(Cl)nc1Cl`: it took 144000 nM to reach half-maximal cytotoxicity in [7] (CC50 at 24 h). Besides, in the data set on Hepatitis B virus [8], the “inhibition (INH)” value came to 51%. For the same molecule, the concentration for half-maximal inhibition (IC50) with Hepatitis B virus [9] came out at 880 nM.

Regarding `O=c1[nH][nH]c(=O)c2c(-c3ccc4c(c3)OCO4)c3c4c(ccc3cc12)OCO4`, in data set [10], the 50% cytotoxic concentration (CC50) at 72 h worked out at 9000 nM.

With `O=C1OCc2c1cc1ccc3c(c1c2-c1ccc2c(c1)OCO2)OCO3` [HELIOXANTHIN], the half-maximal cytotoxic concentration (CC50) at 72 h in data set [10] was 6000 nM. Also, the IC50 in the data set with Hepatitis B virus [11] stood at 1000 nM. On to `CC(=O)Oc1ccccc1C(=O)Nc1ncc([N+](=O)[O-])s1` [NITAZOXANIDE], for which the half-inhibitory concentration (IC50) in the data set with Hepatitis B virus [12] amounted to 120 nM. `CCOC(=O)C1=C(C)NC(c2ncccc2F)=N[C@@H]1c1ccc(F)cc1Cl`: the IC50 in the data set with Hepatitis B virus [2] was determined as 150 nM.

Take `CCOC(=O)C1=C(CN2CCOCC2)NC(c2nccs2)=NC1c1ccc(F)cc1Br` (configuration not stated): the half-maximal inhibitory concentration (IC50) with Hepatitis B virus [2] turned out to be 12 nM.

On to `O=C(O[C@@H]1Cc2c(O)cc(O)cc2O[C@@H]1c1cc(O)c(O)c(O)c1)c1cc(O)c(O)c(O)c1` [EPIGALOCATECHIN GALLATE], for which the inhibition at 50 µM in the data set on Hepatitis B virus [13] is more than 80%. For `C/C=C/C[C@@H](C)[C@@H](O)[C@H]1C(=O)N[C@@H](CC)C(=O)N(C)CC(=O)N(C)[C@@H](CC(C)C)C(=O)N[C@@H](C(C)C)C(=O)N(C)[C@@H](CC(C)C)C(=O)N[C@@H](C)C(=O)N[C@H](C)C(=O)N(C)[C@@H](CC(C)C)C(=O)N(C)[C@@H](CC(C)C)C(=O)N(C)[C@@H](C(C)C)C(=O)N1C` [CYCLOSPORINE], in the data set with Hepatitis B virus [14], the IC50 is less than 200 nM. Consider `COC(=O)C1=C(CN2CCOCC2)NC(c2nccs2)=N[C@H]1c1ccc(F)cc1Br`, for which the IC50 in the data set on Hepatitis B virus [2] came out at 11 nM. Consider `O=C(Nc1ncc([N+](=O)[O-])s1)c1ccccc1O` [TIZOXANIDE], for which the IC50 in the data set on Hepatitis B virus [12] was 150 nM.
